Data: patent US7297460B2, “Radiation curable ink compositions suitable for ink-jet printing” (Agfa-Gevaert, priority 2003, dated 2007)

Test: Solubility of invention compounds in reactive diluents and oligomers
Format: physicochemical

C=C(C)C(=O)OCCC[Si]12O[Si]3(CCCOC(=O)C(=C)C)O[Si]4(CCCOC(=O)C(=C)C)O[Si](CCCOC(=O)C(=C)C)(O1)O[Si]1(CCCOC(=O)C(=C)C)O[Si](CCCOC(=O)C(=C)C)(O2)O[Si](CCCOC(=O)C(=C)C)(O3)O[Si](CCCOC(=O)C(=C)C)(O4)O1 [I.10]
50 wt %: Solubility in CN501 (in CRAYNOR CN501, amino-modified polether acrylate, * footnote: complete solubility after addition of a very small amount of CH2Cl2) | Solubility in TMPTA (in TMPTA = trihydroxymethylpropane triacrylate, * / # footnotes: dissolved after addition of a very small amount of CH2Cl2) | Solubility in TPGDA (in TPGDA = tri(propyleneglycol) diacrylate, * / # footnotes: dissolved after addition of a very small amount of CH2Cl2)
